The results in this text go back to paper PMC10899790, “A bromodomain-independent mechanism of gene regulation by the BET inhibitor JQ1: direct activation of nuclear receptor PXR” (Nucleic Acids Research, 2023).

For series [1], the target named is T1, PXR LBD (Homo sapiens, UniProt O75469).
T1 construct: GST-PXR LBD protein (cat. # PV4841) were purchased from Thermo Fisher Scientific; purchased Thermo Fisher Scientific PV4841
T1 sequence (O75469 146-433 limits assumed): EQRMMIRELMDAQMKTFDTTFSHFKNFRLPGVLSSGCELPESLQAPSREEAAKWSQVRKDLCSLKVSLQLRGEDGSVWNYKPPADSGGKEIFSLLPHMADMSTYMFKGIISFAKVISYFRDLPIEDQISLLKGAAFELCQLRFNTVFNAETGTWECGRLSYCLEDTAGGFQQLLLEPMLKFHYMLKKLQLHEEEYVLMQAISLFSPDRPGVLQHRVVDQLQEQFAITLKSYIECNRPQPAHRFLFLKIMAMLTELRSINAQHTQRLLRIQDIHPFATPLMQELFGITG
As to the kind of experiment: TR-FRET PXR LBD NCoR recruitment and release assays. It is filed as biochemical. Particulars: TR-FRET in the presence of 1 μM SPA70. The protocol: The TR-FRET PXR LBD NCoR recruitment assay was similarly performed, but with 500 nM FAM-NCoR peptide. Data were normalized using equations (2) and (3) with 10 μM SPA70 in place of T0901317 as the control. For the NCoR release assay, all wells contained 1 μM SPA70 to induce PXR LBD interaction with NCoR, and dose responses of agonists were used to disrupt the PXR LBD/SPA70/NCoR complex. In the release assay, 1 μM SPA70 alone served as the 100% control, and DMSO alone served as the 0% control. NCoR release assay wells contained 0.4% DMSO due to the two-compound addition.
(TR-FRET usually uses a lanthanide donor and a delayed reading to cut background.)

The target in series [2] is T1, PXR LBD. As to the kind of experiment: TR-FRET PXR LBD ligand binding assay. The settings on record: TR-FRET competition with BODIPY FL vindoline. As for the experimental part: The TR-FRET PXR LBD ligand binding assay measures binding of PXR ligands by competition with a fluorescently labeled ligand (BODIPY FL vindoline) (Supplementary Figure S3) and was performed as previously described with minor modifications ([24]). […] BODIPY FL vindoline (15 μl/well, 133.3 nM in assay buffer) was dispensed into 384-well low-volume black assay plates. An Echo 650 Acoustic Liquid Handler then dispensed 60 nl/well of compound stocks or DMSO.

“Also recorded” adds a separate entry of the source.

As to `Cc1sc2c(c1C)C(c1ccc(Cl)cc1)=N[C@@H](CC(=O)OC(C)(C)C)c1nnc(C)n1-2` [JQ1, (+)-JQ1], the “inhibition of SPA70-mediated NCoR recruitment (NCoR release)” value in series [1] is “inhibited SPA70-mediated NCoR recruitment”. Further, the “binding to purified PXR LBD (binding potency)” value in series [2] is reported as “comparable to rifampicin in binding potencies; also recorded: JQ1 > birabresib > CPI-203”.
